Experimental findings from PubChem BioAssay AID256 (DTP/NCI, 2004) are described below.

“And” between values parts separate entries of the source, which are not always exact repeats. Equal entries are not always repeated. Toxic doses and inconclusive results are not listed.

The subject of the assay is CD2F1 mice, L1210 leukemia ip, survival T/C. As to the kind of experiment: NCI In Vivo Anticancer Drug Screen. Data for tumor model L1210 Leukemia (intraperitoneal) in CD2F1 (CDF1) mice. To be noted: higher = longer survival. Put shortly:
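Mice carrying a transplanted tumor received test compound or vehicle alone. The value is the measurement in the treated group divided by that in the vehicle-treated control group.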

The mark [1] stands for this setting: endpoint: mean survival time, dose: 100.0 mg/kg/injection, schedule: Q01DX009 (ip), vehicle: other.
The mark [2] stands for this setting: endpoint: mean survival time, dose: 200.0 mg/kg/injection, schedule: Q01DX009 (ip), vehicle: other.
[3] abbreviates: endpoint: mean survival time, dose: 50.0 mg/kg/injection, schedule: Q01DX009 (ip), vehicle: saline with Tween-80.
The mark [4] stands for this setting: endpoint: mean survival time, dose: 100.0 mg/kg/injection, schedule: Q01DX009 (ip), vehicle: saline with Tween-80.
Setting [5] is: endpoint: mean survival time, dose: 100.0 mg/kg/injection, schedule: Q04DX003 (ip), vehicle: saline with Tween-80.
Where [6] appears, read: endpoint: mean survival time, dose: 200.0 mg/kg/injection, schedule: Q01DX009 (ip), vehicle: saline with Tween-80.
[7] abbreviates: endpoint: mean survival time, dose: 200.0 mg/kg/injection, schedule: Q04DX003 (ip), vehicle: saline with Tween-80.
[8] abbreviates: endpoint: mean survival time, dose: 12.5 mg/kg/injection, schedule: Q01DX009 (ip), vehicle: saline with Tween-80.
Setting [9] is: endpoint: mean survival time, dose: 100.0 mg/kg/injection, schedule: Q01DX001 (ip), vehicle: saline with Tween-80.
Where [10] appears, read: endpoint: mean survival time, dose: 75.0 mg/kg/injection, schedule: Q01DX001 (ip), vehicle: other.
Where [11] appears, read: endpoint: mean survival time, dose: 150.0 mg/kg/injection, schedule: Q01DX001 (ip), vehicle: other.
Where [12] appears, read: endpoint: mean survival time, dose: 300.0 mg/kg/injection, schedule: Q01DX001 (ip), vehicle: other.
Setting [13] is: endpoint: mean survival time, dose: 400.0 mg/kg/injection, schedule: Q01DX009 (ip), vehicle: saline with Tween-80.
Where [14] appears, read: endpoint: mean survival time, dose: 400.0 mg/kg/injection, schedule: Q04DX003 (ip), vehicle: saline with Tween-80.

Take `CCCC(CC(=O)O)(C(=O)O)c1ccccc1` (centres undefined): the T/C reads like this: under setting [1], 108 % of control; (endpoint: mean survival time, dose: 100.0 mg/kg/injection, schedule: Q04DX003 (ip), vehicle: other) 93 % of control; under setting [2], 91 % of control; (endpoint: mean survival time, dose: 200.0 mg/kg/injection, schedule: Q04DX003 (ip), vehicle: other) 97 % of control; (endpoint: mean survival time, dose: 400.0 mg/kg/injection, schedule: Q01DX009 (ip), vehicle: other) 91 % of control; (endpoint: mean survival time, dose: 400.0 mg/kg/injection, schedule: Q04DX003 (ip), vehicle: other) 98 % of control.
Turning to `O=CC(O)C(O)C(O)C(O)C(O)CO` (centres undefined), the T/C is 94 % of control (endpoint: mean survival time, dose: 100.0 mg/kg/injection, schedule: Q01DX001 (ip), vehicle: saline); 103 % of control (endpoint: mean survival time, dose: 200.0 mg/kg/injection, schedule: Q01DX001 (ip), vehicle: saline); 97 % of control (endpoint: mean survival time, dose: 400.0 mg/kg/injection, schedule: Q01DX001 (ip), vehicle: saline).
For `CC(C)C1(C(C)C)OCCO1`, the T/C reads like this: under setting [3], 98 % of control; under setting [4], 93 % of control; under setting [5], 97 % of control; under setting [6], 95 % of control; under setting [7], 88 % of control.
Regarding `N#CCC(=O)N/N=C/c1ccc2c(c1)CCC2`, the T/C was 97 % of control under setting [8]; 100 % of control (endpoint: mean survival time, dose: 12.5 mg/kg/injection, schedule: Q04DX003 (ip), vehicle: saline with Tween-80); 90 % of control (endpoint: mean survival time, dose: 25.0 mg/kg/injection, schedule: Q01DX009 (ip), vehicle: saline with Tween-80); 97 % of control (endpoint: mean survival time, dose: 25.0 mg/kg/injection, schedule: Q04DX003 (ip), vehicle: saline with Tween-80); 90 % of control under setting [3]; 88 % of control (endpoint: mean survival time, dose: 50.0 mg/kg/injection, schedule: Q04DX003 (ip), vehicle: saline with Tween-80).
As to `O=[N+]([O-])/C=C\c1cc2c3c(c1)CCCN3CCC2`, the T/C (endpoint: mean survival time, dose: 3.13 mg/kg/injection, schedule: Q01DX009 (ip), vehicle: saline with Tween-80) is 105 % of control; the T/C (endpoint: mean survival time, dose: 6.25 mg/kg/injection, schedule: Q01DX009 (ip), vehicle: saline with Tween-80) is 97 % of control; the T/C under setting [8] is 100 % of control; the T/C (endpoint: mean survival time, dose: 50.0 mg/kg/injection, schedule: Q01DX001 (ip), vehicle: saline with Tween-80) was 105 % of control; the T/C under setting [9] was 103 % of control.
On to `COc1cc(OC)c(NC(=O)C(=O)Nc2cc(Cl)c(OC)cc2OC)cc1Cl`, for which the T/C runs as follows: under setting [3], 88 % of control; under setting [4], 88 % of control; under setting [6], 91 % of control.
As to `C=Cc1ccc(OC2OC(COC(C)=O)C(OC3OC(COC(C)=O)C(OC(C)=O)C(OC(C)=O)C3OC(C)=O)C(OC(C)=O)C2OC(C)=O)cc1` (centres undefined), the T/C is, setting by setting: under setting [10], 92 % of control; under setting [11], 95 % of control; under setting [12], 92 % of control.
In the case of `CN(Cc1ccc([N+](=O)[O-])cc1)N=Nc1ccc(C(=O)O)cc1`, the T/C by setting is: (endpoint: mean survival time, dose: 25.0 mg/kg/injection, schedule: Q01DX009 (ip), vehicle: other) 94 % of control; (endpoint: mean survival time, dose: 50.0 mg/kg/injection, schedule: Q01DX009 (ip), vehicle: other) 97 % of control; under setting [1], 86 % of control; under setting [2], 94 % of control.
`COC1C(N)C(OC2C(Oc3cccc4c(O)c5c(=O)oc6ccc(C)c7c(=O)oc(c34)c5c67)OC(C)C(O)C2(C)O)OC(C)C1O` (centres undefined): the T/C was 151 % of control (endpoint: median survival time, dose: 1.25 mg/kg/injection, schedule: Q01DX005 (ip), vehicle: other); 177 % of control (endpoint: median survival time, dose: 3.0 mg/kg/injection, schedule: Q01DX005 (ip), vehicle: other); 164 % of control and 177 % of control (endpoint: median survival time, dose: 5.0 mg/kg/injection, schedule: Q01DX005 (ip), vehicle: other).
For `CC1CC1Cc1ccccc1` (centres undefined), the T/C under setting [9] was 86 % of control.
With `Cc1csc2nccc(Cl)c12`, the T/C reads like this: under setting [9], 100 % of control; (endpoint: mean survival time, dose: 200.0 mg/kg/injection, schedule: Q01DX001 (ip), vehicle: saline with Tween-80) 112 % of control; (endpoint: mean survival time, dose: 400.0 mg/kg/injection, schedule: Q01DX001 (ip), vehicle: saline with Tween-80) 97 % of control.
Turning to `O=NN1Cc2ccccc2C1=O`, the T/C under setting [4] was 96 % of control, the T/C under setting [6] is 94 % of control and the T/C under setting [13] was 94 % of control.
For `CCC1OC2CS(=O)(=O)CC2O1` (centres undefined), the T/C reads like this: under setting [5], 96 % of control; under setting [7], 96 % of control; under setting [14], 96 % of control.
`O=C(O)CCC(O)CC(=O)OCc1ccccc1` (centres undefined): the T/C (endpoint: mean survival time, dose: 100.0 mg/kg/injection, schedule: Q04DX002 (ip), vehicle: saline) is 107 % of control; the T/C (endpoint: mean survival time, dose: 200.0 mg/kg/injection, schedule: Q04DX002 (ip), vehicle: saline) is 107 % of control; the T/C (endpoint: mean survival time, dose: 400.0 mg/kg/injection, schedule: Q04DX002 (ip), vehicle: saline) was 96 % of control.
For `OC(c1ccccc1)c1nc2ccccc2[nH]1` (centres undefined), the T/C reads like this: under setting [4], 98 % of control; under setting [5], 101 % of control; under setting [6], 95 % of control; under setting [7], 96 % of control; under setting [13], 96 % of control; under setting [14], 100 % of control.
On to `N#Cc1nc2c(nc1N)CCCCCCCCCC2`, for which the T/C is 87 % of control (endpoint: mean survival time, dose: 100.0 mg/kg/injection, schedule: Q01DX001 (ip), vehicle: Klucel (hydroxypropylcellulose) (HPC)); 87 % of control (endpoint: mean survival time, dose: 200.0 mg/kg/injection, schedule: Q01DX001 (ip), vehicle: Klucel (hydroxypropylcellulose) (HPC)); 87 % of control (endpoint: mean survival time, dose: 400.0 mg/kg/injection, schedule: Q01DX001 (ip), vehicle: Klucel (hydroxypropylcellulose) (HPC)).
As to `CC(C)C1C=CC(C)(/C=C/N2CCCC2)CC1` (centres undefined), the T/C reads like this: under setting [10], 98 % of control; under setting [11], 98 % of control; under setting [12], 102 % of control.
For `CCCCCCCCCCCCCC(=O)N(C)C`, the T/C is 92 % of control (endpoint: mean survival time, dose: 50.0 mg/kg/injection, schedule: Q01DX009 (ip), vehicle: saline); 98 % of control (endpoint: mean survival time, dose: 100.0 mg/kg/injection, schedule: Q01DX009 (ip), vehicle: saline); 95 % of control under setting [5]; 95 % of control (endpoint: mean survival time, dose: 200.0 mg/kg/injection, schedule: Q01DX009 (ip), vehicle: saline); 103 % of control under setting [7].
`c1ccc(C2OCC3(CO2)COC(c2ccccc2)OC3)cc1` (centres undefined): the T/C runs as follows: under setting [4], 88 % of control; under setting [5], 94 % of control; under setting [6], 91 % of control; under setting [7], 92 % of control; under setting [14], 92 % of control.
As for `c1ccc(CNc2ccccn2)cc1`, the T/C is 97 % of control under setting [5], 97 % of control under setting [7] and 95 % of control under setting [14].
Take `C=C1C(=O)C2=CC1CCC(=O)C1(C)CCC(OC(C)=O)C(C)(C)C1CC2O` (centres undefined): the T/C by setting is: (endpoint: mean survival time, dose: 3.75 mg/kg/injection, schedule: Q01DX009 (ip), vehicle: Klucel (hydroxypropylcellulose) (HPC)) 97 % of control; (endpoint: mean survival time, dose: 7.5 mg/kg/injection, schedule: Q01DX009 (ip), vehicle: Klucel (hydroxypropylcellulose) (HPC)) 98 % of control and 100 % of control; (endpoint: mean survival time, dose: 15.0 mg/kg/injection, schedule: Q01DX009 (ip), vehicle: Klucel (hydroxypropylcellulose) (HPC)) 95 % of control and 98 % of control; (endpoint: mean survival time, dose: 30.0 mg/kg/injection, schedule: Q01DX009 (ip), vehicle: Klucel (hydroxypropylcellulose) (HPC)) 98 % of control and 101 % of control; (endpoint: mean survival time, dose: 60.0 mg/kg/injection, schedule: Q01DX009 (ip), vehicle: Klucel (hydroxypropylcellulose) (HPC)) 95 % of control and 96 % of control; (endpoint: mean survival time, dose: 120.0 mg/kg/injection, schedule: Q01DX009 (ip), vehicle: Klucel (hydroxypropylcellulose) (HPC)) 89 % of control.
In the case of `COC(=O)C1=NC=NC1=[N+]=[N-]`, the T/C is, setting by setting: (endpoint: mean survival time, dose: 10.0 mg/kg/injection, schedule: Q01DX001 (ip), vehicle: saline) 96 % of control; (endpoint: mean survival time, dose: 20.0 mg/kg/injection, schedule: Q01DX001 (ip), vehicle: saline) 93 % of control.
